# Measurements from patent US4118583A, “Mixed esters of polyols” (Laboratories om Societe Anonyme, priority 1976, dated 1978).
# Like-named read-outs stand apart in the source and are kept apart here.
# Experiments:
# [1] = Acute toxicity on the male rat, p.o. (Table I); settings: in vivo, po
# Experimental: The acute toxicity of compounds I to VI was determined on the male rat (Table I).
# [2] = system: cholesterol and triglycerides; experiment: Hypocholesterolemiating and hypolipemiating activity in normolipemiating rats (Table III); format: in vivo; settings: rat, gastric probe, equivalent of 75 mg/kg clofibrate every 12 hours, 10 days; for Triglycerides: untreated 1.13; for Cholesterol: untreated 90.79; for Cholesterol, decrease / Triglycerides, decrease: versus untreated
# Experimental: Groups of 10 normolipemiating rats were treated for 10 days, by gastric probe, with the equivalent of 75 mg/kg of clofibrate, administered every 12 hours. After 10 days, 12 hours after the last administration, they were sacrificed and the cholesterol and triglycerides analysed (Table III).
# [3] = comparison value given in text, no source or test printed; cited from earlier work
SMILES,LD50 [1],Triglycerides [2],Cholesterol [2],"Cholesterol, decrease [2]","Triglycerides, decrease [2]",LD50 [3]
"CC(=O)Oc1ccccc1C(=O)OC1C(OC(=O)c2ccccc2OC(C)=O)C(OC(=O)C(C)(C)Oc2ccc(Cl)cc2)C(OC(=O)C(C)(C)Oc2ccc(Cl)cc2)C(OC(=O)C(C)(C)Oc2ccc(Cl)cc2)C1OC(=O)C(C)(C)Oc1ccc(Cl)cc1 (stereo not drawn) [Compound I, 1,2-di-(acetylsalicyl)-3,4,5,6-tetra-(2-p-chlorophenoxy-2-methylpropionyl)-meso-inositol]",> 5000 mg/kg,0.96 mm mole/l.,78.25 mg/100 ml,14%,15%,
"CC(=O)Oc1ccccc1C(=O)OC(COC(=O)C(C)(C)Oc1ccc(Cl)cc1)COC(=O)C(C)(C)Oc1ccc(Cl)cc1 [Compound II, 1,3-di-(2-p-chlorophenoxy-2-methylpropionyloxy)-2-(acetylsalicyloxy)-propane]",> 7500 mg/kg,0.92 mm mole/l.,73.90 mg/100 ml,19%,19%,
"CC(=O)Oc1ccccc1C(=O)OCC(COC(=O)C(C)(C)Oc1ccc(Cl)cc1)OC(=O)C(C)(C)Oc1ccc(Cl)cc1 (stereo not drawn) [Compound III, 3-(acetylsalicyloxy)-1,2-di-(2-p-chlorophenoxy-2-methylpropionyloxy)-propane]",> 6200 mg/kg,0.91 mm mole/l.,75.63 mg/100 ml,17%,19%,
"CC(=O)Oc1ccccc1C(=O)OCC(COC(=O)C(C)(C)Oc1ccc(Cl)cc1)OC(C)=O (stereo not drawn) [Compound IV, 1-(acetylsalicyloxy)-3-(2-p-chlorophenoxy-2-methylpropionyloxy)-2-acetoxy-propane]",> 5000 mg/kg,0.97 mm mole/l.,72.12 mg/100 ml,21%,14%,
"CC(=O)Oc1ccccc1C(=O)OCCOC(=O)C(C)(C)Oc1ccc(Cl)cc1 [Compound VI, 1-(acetylsalicyloxy)-2-(2-p-chlorophenoxy-2-methylpropionyloxy)-ethane]",> 6000 mg/kg,0.83 mm mole/l.,67.34 mg/100 ml,26%,27%,
CC(=O)Oc1ccccc1C(=O)OCC(COC(=O)C(C)(C)Oc1ccc(Cl)cc1)OS(=O)(=O)O (stereo not drawn) [Compound V],> 5000 mg/kg,0.89 mm mole/l.,68.38 mg/100 ml,25%,21%,
CC(=O)Oc1ccccc1C(=O)O [acetylsalicylic acid],,,,,,1750 mg/kg
"CCOC(=O)C(C)(C)Oc1ccc(Cl)cc1 [clofibrate, reference compound]",,0.83 mm mole/l.,65.24 mg/100 ml,28%,27%,1200 mg/kg
